Square brackets hold non-standard residues; d marks the D form. Peptide text beside a SMILES is read from it. * marks the point of attachment. Fluorescein(5-NHCOCH2) = O=C(C*)Nc1ccc2c(c1)C(=O)OC21c2ccc(O)cc2Oc2cc(O)ccc21; pS = N[C@@H](COP(=O)(O)O)C(=O)O
Target: T1, CBP KIX wild type (Mus musculus, UniProt P45481)
T1 construct: made in house; host or cells: E. coli BL21(DE3) pArg
Assay: Equilibrium fluorescence polarization, wild type CBP KIX
Format: binding
Settings: 25° C.

T1 sequence (P45481 586-665 limits assumed): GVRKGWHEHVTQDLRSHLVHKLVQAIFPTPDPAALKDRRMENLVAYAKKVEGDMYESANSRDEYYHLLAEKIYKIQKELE

Kd [nM] | Structure (SMILES)
870 ± 40 | CC[C@H](C)[C@H](NC(=O)[C@H](Cc1ccc(O)cc1)NC(=O)[C@H](Cc1ccccc1)NC(=O)[C@H](Cc1ccccc1)NC(=O)[C@H](COP(=O)(O)O)NC(=O)[C@H](CC(C)C)NC(=O)[C@H](CCCNC(=N)N)NC(=O)[C@H](CCCNC(=N)N)NC(=O)[C@@H](NC(=O)[C@@H]1CCCN1C(=O)[C@H](C)NC(=O)[C@H](CC(=O)O)NC(=O)[C@H](CC(=O)O)NC(=O)CNC(=O)[C@@H]1CCCN1C(=O)[C@H](Cc1ccc(O)cc1)NC(=O)[C@@H](NC(=O)[C@@H]1CCCN1C(=O)[C@H](CCC(N)=O)NC(=O)[C@H](CO)NC(=O)[C@H](C)NC(=O)CN)[C@@H](C)O)C(C)C)C(=O)N[C@@H](CC(C)C)C(=O)N[C@@H](CC(C)C)C(=O)N[C@@H](CC(=O)O)C(=O)N[C@@H](CC(C)C)C(=O)N[C@@H](Cc1ccc(O)cc1)C(=O)N[C@@H](CC(C)C)C(=O)N[C@@H](CC(=O)O)C(=O)N[C@@H](C)C(=O)N1CCC[C@H]1C(=O)NCC(=O)N[C@H](C(=O)N[C@@H](CSCC(=O)Nc1ccc2c(c1)C(=O)OC21c2ccc(O)cc2Oc2cc(O)ccc21)C(N)=O)C(C)C [P2A] (H-GASQPTYPGDDAPVRRL[pS]FFYILLDLYLDAPGVC(Fluorescein(5-NHCOCH2))-NH2)
1020 ± 90 | CC[C@H](C)[C@H](NC(=O)[C@H](Cc1ccc(O)cc1)NC(=O)[C@H](Cc1ccccc1)NC(=O)[C@H](Cc1ccccc1)NC(=O)[C@H](COP(=O)(O)O)NC(=O)[C@H](CC(C)C)NC(=O)[C@H](CCCNC(=N)N)NC(=O)[C@H](CCCNC(=N)N)NC(=O)[C@@H](NC(=O)[C@@H]1CCCN1C(=O)[C@H](C)NC(=O)[C@H](CC(=O)O)NC(=O)[C@H](CC(=O)O)NC(=O)CNC(=O)[C@@H]1CCCN1C(=O)[C@H](Cc1ccc(O)cc1)NC(=O)[C@@H](NC(=O)[C@H](C)NC(=O)[C@H](CCC(N)=O)NC(=O)[C@H](CO)NC(=O)[C@@H]1CCCN1C(=O)CN)[C@@H](C)O)C(C)C)C(=O)N[C@@H](CC(C)C)C(=O)N[C@@H](CC(C)C)C(=O)N[C@@H](CC(=O)O)C(=O)N[C@@H](CC(C)C)C(=O)N[C@@H](Cc1ccc(O)cc1)C(=O)N[C@@H](CC(C)C)C(=O)N[C@@H](CC(=O)O)C(=O)N[C@@H](C)C(=O)N1CCC[C@H]1C(=O)NCC(=O)N[C@H](C(=O)N[C@@H](CSCC(=O)Nc1ccc2c(c1)C(=O)OC21c2ccc(O)cc2Oc2cc(O)ccc21)C(N)=O)C(C)C [P5A] (H-GPSQATYPGDDAPVRRL[pS]FFYILLDLYLDAPGVC(Fluorescein(5-NHCOCH2))-NH2)
1070 ± 80 | CC[C@H](C)[C@H](NC(=O)[C@H](Cc1ccc(O)cc1)NC(=O)[C@H](Cc1ccccc1)NC(=O)[C@H](Cc1ccccc1)NC(=O)[C@H](COP(=O)(O)O)NC(=O)[C@H](CC(C)C)NC(=O)[C@H](CCCNC(=N)N)NC(=O)[C@H](CCCNC(=N)N)NC(=O)[C@@H](NC(=O)[C@@H]1CCCN1C(=O)[C@H](C)NC(=O)[C@H](CC(=O)O)NC(=O)[C@H](CC(=O)O)NC(=O)CNC(=O)[C@H](C)NC(=O)[C@H](Cc1ccc(O)cc1)NC(=O)[C@@H](NC(=O)[C@@H]1CCCN1C(=O)[C@H](CCC(N)=O)NC(=O)[C@H](CO)NC(=O)[C@@H]1CCCN1C(=O)CN)[C@@H](C)O)C(C)C)C(=O)N[C@@H](CC(C)C)C(=O)N[C@@H](CC(C)C)C(=O)N[C@@H](CC(=O)O)C(=O)N[C@@H](CC(C)C)C(=O)N[C@@H](Cc1ccc(O)cc1)C(=O)N[C@@H](CC(C)C)C(=O)N[C@@H](CC(=O)O)C(=O)N[C@@H](C)C(=O)N1CCC[C@H]1C(=O)NCC(=O)N[C@H](C(=O)N[C@@H](CSCC(=O)Nc1ccc2c(c1)C(=O)OC21c2ccc(O)cc2Oc2cc(O)ccc21)C(N)=O)C(C)C [P8A] (H-GPSQPTYAGDDAPVRRL[pS]FFYILLDLYLDAPGVC(Fluorescein(5-NHCOCH2))-NH2)

— patent US20110028686A1, “Protein binding miniature proteins” (Yale University, priority 2000, published 2011)
